Reference: patent US20240158370A1, “CK1 alpha AND DUAL CK1 alpha / GSPT1 DEGRADING COMPOUNDS” (Innovo Therapeutics, Inc., priority 2022, published 2024)

Columns and labels:
[1] = biological target: T1, CK1α (Homo sapiens, UniProt P48729+Q96SW2); assay: HiBiT degradation assay, CK1α, Procedure A; format: cell-based
T1 construct: CSNK1A1-HiBit KI HEK293(LgBit) Cells; host or cells: HEK293(LgBit) knock-in cells
How it was run: (§1)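 DC50 and Ymin (% remaining) were derived by four-parameter fitting of luminescence data. The data come from a six-hour, 37° C compound exposure of cells in DMEM/10% FBS over a ten-point range, 10 μM to 0.005 μM, followed by Nano-Glo HiBiT lytic detection.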

[2] = biological target: GSPT1 (Homo sapiens, UniProt P15170+Q96SW2); assay: HiBiT degradation assay, GSPT1, Procedure A; format: cell-based; set-up: HiBit-GSPT1 KI HEK293(LgBit) Cells; host or cells: HEK293(LgBit) knock-in cells
GSPT1, sequence (P15170 whole entry): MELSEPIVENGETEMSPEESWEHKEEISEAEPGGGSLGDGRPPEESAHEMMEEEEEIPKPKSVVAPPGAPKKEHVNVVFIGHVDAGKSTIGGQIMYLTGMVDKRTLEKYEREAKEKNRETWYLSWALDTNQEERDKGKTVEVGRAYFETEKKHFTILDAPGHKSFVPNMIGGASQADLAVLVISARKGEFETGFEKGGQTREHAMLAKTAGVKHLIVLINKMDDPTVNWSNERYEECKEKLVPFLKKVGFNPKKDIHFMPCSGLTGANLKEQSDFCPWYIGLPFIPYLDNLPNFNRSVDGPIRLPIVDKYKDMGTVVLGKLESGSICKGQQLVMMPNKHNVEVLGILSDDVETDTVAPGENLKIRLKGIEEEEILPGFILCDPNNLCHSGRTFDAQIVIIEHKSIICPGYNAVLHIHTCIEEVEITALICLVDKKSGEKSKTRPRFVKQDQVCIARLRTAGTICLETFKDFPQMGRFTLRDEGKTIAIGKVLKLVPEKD
GSPT1, sequence (Q96SW2 whole entry): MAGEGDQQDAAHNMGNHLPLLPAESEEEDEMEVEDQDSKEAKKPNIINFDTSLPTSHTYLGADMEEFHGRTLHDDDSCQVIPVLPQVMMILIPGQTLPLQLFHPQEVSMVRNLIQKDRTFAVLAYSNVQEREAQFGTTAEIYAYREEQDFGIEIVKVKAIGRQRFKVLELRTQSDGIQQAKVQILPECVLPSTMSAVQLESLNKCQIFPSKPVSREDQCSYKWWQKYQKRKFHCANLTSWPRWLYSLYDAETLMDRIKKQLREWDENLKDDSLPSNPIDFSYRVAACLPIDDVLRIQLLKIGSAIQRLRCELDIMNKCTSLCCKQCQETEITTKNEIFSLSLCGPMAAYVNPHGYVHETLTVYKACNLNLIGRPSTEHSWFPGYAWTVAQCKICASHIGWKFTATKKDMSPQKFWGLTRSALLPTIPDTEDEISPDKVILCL
GSPT1, sequence (Q16531 whole entry partner): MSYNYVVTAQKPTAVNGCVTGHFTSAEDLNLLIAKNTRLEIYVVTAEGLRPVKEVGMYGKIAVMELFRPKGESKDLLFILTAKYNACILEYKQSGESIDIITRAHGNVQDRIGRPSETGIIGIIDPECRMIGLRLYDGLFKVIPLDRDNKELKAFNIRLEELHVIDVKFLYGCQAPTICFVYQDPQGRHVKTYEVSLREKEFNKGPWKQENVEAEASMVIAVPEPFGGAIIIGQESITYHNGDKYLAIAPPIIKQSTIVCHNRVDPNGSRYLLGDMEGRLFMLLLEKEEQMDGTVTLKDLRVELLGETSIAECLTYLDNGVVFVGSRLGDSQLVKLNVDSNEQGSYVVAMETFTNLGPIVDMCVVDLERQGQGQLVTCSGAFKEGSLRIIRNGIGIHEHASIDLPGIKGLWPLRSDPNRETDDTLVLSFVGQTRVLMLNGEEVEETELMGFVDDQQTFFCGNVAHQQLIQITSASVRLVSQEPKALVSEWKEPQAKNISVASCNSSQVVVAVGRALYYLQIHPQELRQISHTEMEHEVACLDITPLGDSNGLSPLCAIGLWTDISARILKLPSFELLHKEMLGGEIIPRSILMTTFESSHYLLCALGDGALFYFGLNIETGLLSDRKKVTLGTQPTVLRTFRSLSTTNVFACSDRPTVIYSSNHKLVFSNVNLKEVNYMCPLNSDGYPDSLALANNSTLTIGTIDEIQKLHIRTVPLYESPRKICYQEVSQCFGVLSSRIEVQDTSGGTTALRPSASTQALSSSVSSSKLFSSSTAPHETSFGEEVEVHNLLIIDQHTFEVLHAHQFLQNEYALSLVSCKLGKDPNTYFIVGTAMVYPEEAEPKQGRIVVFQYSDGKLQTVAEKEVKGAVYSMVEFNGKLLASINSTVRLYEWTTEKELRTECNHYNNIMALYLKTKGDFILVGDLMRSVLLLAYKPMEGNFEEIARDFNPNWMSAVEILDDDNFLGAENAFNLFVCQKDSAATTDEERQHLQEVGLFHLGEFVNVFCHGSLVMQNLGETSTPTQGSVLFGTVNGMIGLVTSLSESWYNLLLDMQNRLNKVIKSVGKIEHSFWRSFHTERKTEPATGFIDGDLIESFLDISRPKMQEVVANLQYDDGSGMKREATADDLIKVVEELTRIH
How it was run: as §1

T1 sequence (P48729 whole entry): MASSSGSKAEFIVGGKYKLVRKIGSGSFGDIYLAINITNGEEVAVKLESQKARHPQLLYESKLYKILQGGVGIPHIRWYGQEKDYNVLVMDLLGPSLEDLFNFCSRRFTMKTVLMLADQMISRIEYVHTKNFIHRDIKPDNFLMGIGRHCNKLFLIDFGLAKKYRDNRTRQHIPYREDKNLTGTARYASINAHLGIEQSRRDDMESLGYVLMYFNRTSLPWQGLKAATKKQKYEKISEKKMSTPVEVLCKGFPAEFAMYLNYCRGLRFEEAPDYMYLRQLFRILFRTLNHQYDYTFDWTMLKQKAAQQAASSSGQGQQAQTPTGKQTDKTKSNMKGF
T1 sequence (Q96SW2 whole entry): as the sequence (Q96SW2 whole entry) above
T1 sequence (Q16531 whole entry partner): as the sequence (Q16531 whole entry partner) above

SMILES	CK1α Ymin ([1]; six hours)	DC50 ([1]; six hours) [nM]	DC50 ([2]; six hours) [nM]	GSPT1 Ymin ([2]; six hours)	CK1α Ymin ([1]; six hours incubation)	DC50 ([1]; six hours incubation) [nM]	DC50 ([2]; six hours incubation) [nM]	GSPT1 Ymin ([2]; six hours incubation)
Cn1ncc(-c2ccc3c(c2)CN(C2CCC(=O)NC2=O)C3=O)c1-c1cnn(Cc2ccccc2)c1 (stereo not drawn) [Example 480]	E (E = >25-75% remaining)	≥ 25	≥ 25	F (F = >75-100% remaining)				
COCc1ccc(-c2c(-c3ccc4c(c3)CN(C3CCC(=O)NC3=O)C4=O)cnn2C)cc1 (stereo not drawn) [Example 141]					E (E = >25-75% remaining)	< 25	≥ 25	F (F = >75-100% remaining)
Cn1ncc(-c2ccc3c(c2)CN(C2CCC(=O)NC2=O)C3=O)c1-c1cccc(C(F)F)c1 (stereo not drawn) [Example 59]					E (E = >25-75% remaining)	< 25	≥ 25	F (F = >75-100% remaining)
Cn1cnc(-c2ccc3c(c2)CN(C2CCC(=O)NC2=O)C3=O)c1-c1cnn(C2CCCCC2)c1 (stereo not drawn) [Example 517]	E (E = >25-75% remaining)	≥ 25	< 25	F (F = >75-100% remaining)				
O=C1CCC(N2Cc3cc(-c4cc(-c5ccccc5)[nH]n4)ccc3C2=O)C(=O)N1 (stereo not drawn) [Example 210, 3-(1-Oxo-5-(5-phenyl-1H-pyrazol-3-yl)isoindolin-2-yl)piperidine-2,6-dione]					D (D = >10- 25% remaining)	< 25	≥ 25	F (F = >75-100% remaining)
Cn1cnc(-c2ccc3c(c2)CN(C2CCC(=O)NC2=O)C3=O)c1-c1cccc(C#N)c1F (stereo not drawn) [Example 247]					E (E = >25-75% remaining)	< 25	≥ 25	
Cn1cnc(-c2ccc3c(c2)CN(C2CCC(=O)NC2=O)C3=O)c1-c1cccc(O)c1 (stereo not drawn) [Example 228]					C (C = 0-10% remaining)	< 25	≥ 25	D (D = >10- 25% remaining)
[2H]C([2H])([2H])n1ncc(-c2ccc3c(c2)CN(C2CCC(=O)NC2=O)C3=O)c1-c1ccc2c(c1)CCO2 (stereo not drawn) [Example 432, 3-(5-(5-(2,3-dihydrobenzofuran-5-yl)-1-(methyl-d3)-1H-pyrazol-4-yl)-1-oxoisoindolin-2-yl)piperidine-2,6-dione]	C (C = 0-10% remaining)	< 25	≥ 25	F (F = >75-100% remaining)				
Cn1cnc(-c2ccc3c(c2)CN(C2CCC(=O)NC2=O)C3=O)c1-c1cccc(N)c1 (stereo not drawn) [Example 343]					C (C = 0-10% remaining)	< 25	≥ 25	F (F = >75-100% remaining)
Cc1ccc(-c2c(-c3ccc4c(c3)CN(C3CCC(=O)NC3=O)C4=O)cnn2C)o1 (stereo not drawn) [Example 365]					D (D = >10- 25% remaining)	≥ 25	≥ 25	F (F = >75-100% remaining)
Cn1ncc(-c2ccc3c(c2)CN(C2CCC(=O)NC2=O)C3=O)c1-c1ccc(F)cc1 (stereo not drawn) [Example 8, 3-(5-(5-(4-fluorophenyl)-1-methyl-1H-pyrazol-4-yl)-1-oxoisoindolin-2-yl)piperidine-2,6-dione]					E (E = >25-75% remaining)	< 25	≥ 25	F (F = >75-100% remaining)
Cn1cnc(-c2ccc3c(c2)CN(C2CCC(=O)NC2=O)C3=O)c1-c1ccccc1C1CC1 (stereo not drawn) [Example 347]					E (E = >25-75% remaining)	< 25	≥ 25	F (F = >75-100% remaining)
Cn1cnc(-c2ccc3c(c2)CN(C2CCC(=O)NC2=O)C3=O)c1-c1cncc(N)c1 (stereo not drawn) [Example 523]	D (D = >10- 25% remaining)	≥ 25	≥ 25	E (E = >25-75% remaining)				
Cn1ncc(-c2ccc3c(c2)CN(C2CCC(=O)NC2=O)C3=O)c1-c1ccc(NC(=O)c2ccccc2)cc1 (stereo not drawn) [Example 100]					E (E = >25-75% remaining)	≥ 25	≥ 25	F (F = >75-100% remaining)
Cn1cnc(-c2ccc3c(c2)CN(C2CCC(=O)NC2=O)C3=O)c1-c1cccc(N2CCOCC2)c1 (stereo not drawn) [Example 297]					E (E = >25-75% remaining)	< 25	≥ 25	F (F = >75-100% remaining)
Cn1cnc(-c2ccc3c(c2)CN(C2CCC(=O)NC2=O)C3=O)c1-c1ccc2[nH]ncc2c1 (stereo not drawn) [Example 510]	C (C = 0-10% remaining)	< 25	≥ 25	E (E = >25-75% remaining)				
Cc1nc2ccc(-c3c(-c4ccc5c(c4)CN(C4CCC(=O)NC4=O)C5=O)ncn3C)cc2[nH]1 (stereo not drawn) [Example 501]	C (C = 0-10% remaining)	< 25	≥ 25	F (F = >75-100% remaining)				
COc1ccc(F)c(-c2c(-c3ccc4c(c3)CN(C3CCC(=O)NC3=O)C4=O)ncn2C)c1 (stereo not drawn) [Example 193]					D (D = >10- 25% remaining)	< 25	< 25	F (F = >75-100% remaining)
O=C1CCC(N2Cc3cc(-c4cncn4-c4ccccc4)ccc3C2=O)C(=O)N1 (stereo not drawn) [Example 205, 3-(1-Oxo-5-(1-phenyl-1H-imidazol-5-yl)isoindolin-2-yl)piperidine-2,6-dione]					E (E = >25-75% remaining)	< 25	≥ 25	F (F = >75-100% remaining)
Cn1ncc(-c2ccc3c(c2)CN(C2CCC(=O)NC2=O)C3=O)c1-c1cncc(N)c1 (stereo not drawn) [Example 371]					D (D = >10- 25% remaining)	≥ 25	≥ 25	F (F = >75-100% remaining)
O=C1CCC(N2Cc3cc(-c4cnn(C(F)F)c4-c4ccc5c(c4)CCO5)ccc3C2=O)C(=O)N1 (stereo not drawn) [Example 424, 3-(5-(1-(difluoromethyl)-5-(2,3-dihydrobenzofuran-5-yl)-1H-pyrazol-4-yl)-1-oxoisoindolin-2-yl)piperidine-2,6-dione]	D (D = >10- 25% remaining)	< 25	≥ 25	F (F = >75-100% remaining)				
Cn1cnc(-c2ccc3c(c2)CN(C2CCC(=O)NC2=O)C3=O)c1-c1cccc(CN2CCCC2)c1 (stereo not drawn) [Example 295]					D (D = >10- 25% remaining)	≥ 25	≥ 25	F (F = >75-100% remaining)
O=C1CCC(N2Cc3cc(-c4cn(C(F)F)nc4-c4ccc5c(c4)CCO5)ccc3C2=O)C(=O)N1 (stereo not drawn) [Example 423, 3-(5-(1-(difluoromethyl)-3-(2,3-dihydrobenzofuran-5-yl)-1H-pyrazole-4-yl)-1-oxoisoindolin-2-yl)piperidine-2,6-dione]	D (D = >10- 25% remaining)	< 25	≥ 25	F (F = >75-100% remaining)				
CN1CCN(S(=O)(=O)c2ccc(-c3c(-c4ccc5c(c4)CN(C4CCC(=O)NC4=O)C5=O)ncn3C)cc2)CC1 (stereo not drawn) [Example 449]	E (E = >25-75% remaining)	≥ 25	≥ 25	F (F = >75-100% remaining)				
CC(C)c1cccc(-c2c(-c3ccc4c(c3)CN(C3CCC(=O)NC3=O)C4=O)ncn2C)c1 (stereo not drawn) [Example 183]					E (E = >25-75% remaining)	< 25	≥ 25	F (F = >75-100% remaining)
Cn1ncc(-c2ccc3c(c2)CN(C2CCC(=O)NC2=O)C3=O)c1-c1ccc(C(F)(F)F)cc1 (stereo not drawn) [Example 63]					E (E = >25-75% remaining)	< 25	≥ 25	F (F = >75-100% remaining)
Cc1occc1-c1c(-c2ccc3c(c2)CN(C2CCC(=O)NC2=O)C3=O)ncn1C (stereo not drawn) [Example 483]	D (D = >10- 25% remaining)	< 25	< 25	F (F = >75-100% remaining)				
Cn1ncc(-c2ccc3c(c2)CN(C2CCC(=O)NC2=O)C3=O)c1-c1ccc2sccc2c1 (stereo not drawn) [Example 478]	D (D = >10- 25% remaining)	< 25	≥ 25	F (F = >75-100% remaining)				
